Measurements as given in patent publication US6803457B1, “Compounds for the treatment of ischemia” (Pfizer, Inc., priority 1999, dated 2004).

Row | melting point [°C] | Structure (SMILES)
1 | 208 to 209 | CNC(=O)[C@H]1O[C@@H](n2cnc3c(NCc4cc(Cl)ccc4OCc4nccs4)ncnc32)[C@H](O)[C@@H]1N [Example 27, (2S,3S,4R,5R)3-Amino-5-{6-[5-chloro-2-(thiazol-2-ylmethoxy)-benzylamino]-purin-9-yl}-4-hydroxy-tetrahydro-furan-2-carboxylic acid methylamide]
2 | 99 to 108 | CNC(=O)[C@H]1O[C@@H](n2cnc3c(NCc4cc(Cl)ccc4OCCN4CCOCC4)ncnc32)[C@H](O)[C@@H]1N [Example 4, (2S,3S,4R,5R)3-Amino-5-{6-[5-chloro-2-(2-morpholin-4-ylethoxy)benzylamino]-purin-9-yl}-4-hydroxytetrahydrofuran-2-carboxylic acid methylamide]
3 | 107 to 117 | CNC(=O)[C@H]1O[C@@H](n2cnc3c(NCc4cc(Cl)ccc4OCC4CCC4)ncnc32)[C@H](O)[C@@H]1N [Example 5, (2S,3S,4R,5R)3-Amino-5-[6-(5-chloro-2-cyclobutylmethoxybenzylamino)-purin-9-yl]-4-hydroxytetrahydrofuran-2-carboxylic acid methylamide]
4 | 127 to 129 | CNC(=O)[C@H]1O[C@@H](n2cnc3c(NCc4cc(Cl)ccc4OCc4nc5ccccc5s4)ncnc32)[C@H](O)[C@@H]1N [Example 28, (2S,3S,4R,5R)3-Amino-5-{6-[2-(benzothiazol-2-ylmethoxy)-5-chlorobenzylamino]purin-9-yl}-4-hydroxytetrahydrofuran-2-carboxylic acid methylamide]
5 | 76 to 80 | CNC(=O)[C@H]1O[C@@H](n2cnc3c(NCc4cc(Cl)ccc4OCc4ccccc4C)ncnc32)[C@H](O)[C@@H]1N [Example 13, (2S,3S,4R,5R)3-Amino-5-{6-[5-chloro-2-(2-methyl-benzyloxy)-benzylamino]-purin-9-yl}-4-hydroxytetrahydrofuran-2-carboxylic acid methylamide]
6 | 132 to 161 | CNC(=O)[C@H]1O[C@@H](n2cnc3c(NCc4cc(Cl)ccc4OCC4CCOC4)ncnc32)[C@H](O)[C@@H]1N (stereo partly drawn) [Example 20, (2S,3S,4R,5R)3-Amino-5-{6-[5-chloro-2-(tetrahydro-furan-3-ylmethoxy)-benzylamino]-purin-9-yl}-4-hydroxy-tetrahydro-furan-2-carboxylic acid methylamide]
7 | 88 to 92 | CNC(=O)[C@H]1O[C@@H](n2cnc3c(NCc4cc(Cl)ccc4OCc4ccc(Cl)cc4)ncnc32)[C@H](O)[C@@H]1N [Example 9, (2S,3S,4R,5R)3Amino-5-{6-[5-chloro-2-(4-chloro-benzyloxy)-benzylamino]-purin-9-yl}-4-hydroxytetrahydrofuran-2-carboxylic acid methylamide]
8 | 78 to 81 | CNC(=O)[C@H]1O[C@@H](n2cnc3c(NCc4cc(Cl)ccc4OCc4ccc(CN(C)C)o4)ncnc32)[C@H](O)[C@@H]1N [Example 26, (2S,3S,4R,5R)3-Amino-5-{6-[5-chloro-2-(5-dimethylaminomethylfuran-2-ylmethoxy)benzylamino]purin-9-yl}-4-hydroxytetrahydrofuran-2-carboxylic acid methylamide]
9 | 110.6 to 116.2 | CNC(=O)[C@H]1O[C@@H](n2cnc3c(NCc4cc(Cl)ccc4OCC4CCCC4)ncnc32)[C@H](O)[C@@H]1N [Example 18, (2S,3S,4R,5R)3-Amino-5-[6-(5-chloro-2-cyclopentylmethoxy-benzylamino)-purin-9-yl]-4-hydroxytetrahydrofuran-2-carboxylic acid methylamide]
10 | 130 to 134 | CNC(=O)[C@H]1O[C@@H](n2cnc3c(NCc4cc(Cl)ccc4OCc4ccc5ccccc5n4)ncnc32)[C@H](O)[C@@H]1N [Example 32, (2S,3S,4R,5R)3-Amino-5-{6-[5-chloro-2-(quinolin-2-ylmethoxy)benzylamino]purin-9-yl}-4-hydroxytetrahydrofuran-2-carboxylic acid methylamide]
11 | 85 to 88 | CNC(=O)[C@H]1O[C@@H](n2cnc3c(NCc4cc(Cl)ccc4OCc4cc(C)oc4C)ncnc32)[C@H](O)[C@@H]1N [Example 24, (2S,3S,4R,5R)3-Amino-5-{6-[5-chloro-2-(2,5-dimethylfuran-3-ylmethoxy)benzylamino]purin-9-yl}-4-hydroxytetrahydrofuran-2-carboxylic acid methylamide]
12 | 200 to 218 | CNC(=O)[C@H]1O[C@@H](n2cnc3c(NCc4cc(Cl)ccc4OCc4cccnc4)ncnc32)[C@H](O)[C@@H]1N [Example 25, (2S,3S,4R,5R)3-Amino-5-{6-[5-chloro-2-(pyridin-3-ylmethoxy)benzylamino]purin-9-yl}-4-hydroxytetrahydrofuran-2-carboxylic acid methylamide]
13 | 112 to 115 | CNC(=O)[C@H]1O[C@@H](n2cnc3c(NCc4cc(Cl)ccc4OCc4cc(OC)ccc4OC)ncnc32)[C@H](O)[C@@H]1N [Example 7, (2S,3S,4R,5R)3-Amino-5-{6-[5-chloro-2-(2,5-dimethoxy-benzyloxy)-benzylamino]-purin-9-yl}-4-hydroxytetrahydrofuran-2-carboxylic acid methylamide]
14 | 114 to 118 | CNC(=O)[C@H]1O[C@@H](n2cnc3c(NCc4cc(Cl)ccc4OCC4CCOC4)ncnc32)[C@H](O)[C@@H]1N (stereo partly drawn) [Example 11, (2S,3S,4R,5R)3-Amino-5-{6-[5-chloro-2-(tetrahydrofuran-3-ylmethoxy)-benzylamino]-purin-9yl}-4-hydroxytetrahydrofuran-2-carboxylic acid methylamide]
15 | 93 to 97 | CNC(=O)[C@H]1O[C@@H](n2cnc3c(NCc4cc(Cl)ccc4OCc4ccoc4)ncnc32)[C@H](O)[C@@H]1N [Example 16, (2S,3S,4R,5R)3-Amino-5-{6-[5-chloro-2-(furan-3-ylmethoxy)benzylamino]-purin-9-yl}-4-hydroxytetrahydrofuran-2carboxylic acid methylamide]
16 | 212 to 218 | CNC(=O)[C@H]1O[C@@H](n2cnc3c(NCc4cc(Cl)ccc4OCC4OC(O)C(O)C(O)C4O)ncnc32)[C@H](O)[C@@H]1N (stereo partly drawn) [Example 2, (2S,3S,4R,5R)3-Amino-5-{6-[5-chloro-2-(3,4,5,6-tetrahydroxytetrahydropyran-2-ylmethoxy)benzylamino]purin-9-yl}-4-hydroxytetrahydrofuran-2-carboxylic acid methylamide]
17 | 82 to 86 | CNC(=O)[C@H]1O[C@@H](n2cnc3c(NCc4cc(Cl)ccc4OCc4ccc(C)cc4)ncnc32)[C@H](O)[C@@H]1N [Example 12, (2S,3S,4R,5R)3-Amino-5-{6-[5-chloro-2-(4-methyl-benzyloxy)-benzylamino]-purin-9-yl}-4-hydroxytetrahydrofuran-2-carboxylic acid methylamide]
18 | 107 to 110 | CNC(=O)[C@H]1O[C@@H](n2cnc3c(NCc4cc(Cl)ccc4OCc4snnc4C)ncnc32)[C@H](O)[C@@H]1N [Example 33, (2S,3S,4R,5R)3-Amino-5-{6-[5-chloro-2-(4-methyl-[1,2,3]thiadiazol-5-ylmethoxy)benzylamino]purin-9-yl}-4-hydroxytetrahydrofuran-2-carboxylic acid methylamide]
19 | 102 to 108 | CNC(=O)[C@H]1O[C@@H](n2cnc3c(NCc4cc(Cl)ccc4OCc4cccc(OC)c4)ncnc32)[C@H](O)[C@@H]1N [Example 6, (2S,3S,4R,5R)3-Amino-5-{6-[5-chloro-2-(3-methoxy-benzyloxy)-benzylamino]-purin-9-yl}-4-hydroxytetrahydrofuran-2-carboxylic acid methylamide]
20 | 102 to 123 | CNC(=O)[C@H]1O[C@@H](n2cnc3c(NCc4cc(Cl)ccc4OCc4ccccc4OC)ncnc32)[C@H](O)[C@@H]1N [Example 15, (2S,3S,4R,5R)3-Amino-5-{6-[5-chloro-2-(2-methoxybenzyloxy)benzylamino]-purin-9-yl}-4-hydroxytetrahydrofuran-2-carboxylic acid methylamide]
21 | 127 to 130 | CNC(=O)[C@H]1O[C@@H](n2cnc3c(NCc4cc(Cl)ccc4OCc4cc5ccccc5o4)ncnc32)[C@H](O)[C@@H]1N [Example 29, (2S,3S,4R,5R)3-Amino-5-{6-[2-(benzofuran-2-ylmethoxy)-5-chlorobenzylamino]purin-9-yl}-4-hydroxytetrahydrofuran-2-carboxylic acid methylamide]
22 | 187 to 192 | CNC(=O)[C@H]1O[C@@H](n2cnc3c(NCc4cc(Cl)ccc4OCc4ccco4)ncnc32)[C@H](O)[C@@H]1N [Example 22, (2S,3S,4R,5R)3-Amino-5-{6-(5-chloro-2-(furan-2-ylmethoxy)benzylamino]purin-9-yl}-4-hydroxytetrahydrofuran-2-carboxylic acid methylamide]
23 | 135 to 141 | CNC(=O)[C@H]1O[C@@H](n2cnc3c(NCc4cc(Cl)ccc4OCc4cccs4)ncnc32)[C@H](O)[C@@H]1N [Example 31, (2S,3S,4R,5R)3-Amino-5-{6-[5-chloro-2-(thiophen-2-ylmethoxy)benzylamino]purin-9-yl}-4-hydroxytetrahydrofuran-2-carboxylic acid methylamide]
24 | 88 to 92 | CNC(=O)[C@H]1O[C@@H](n2cnc3c(NCc4cc(Cl)ccc4OCc4ccccc4Cl)ncnc32)[C@H](O)[C@@H]1N [Example 10, (2S,3S,4R,5R)3-Amino-5-{6-[5-chloro-2-(2-chloro-benzyloxy)-benzylamino]-purin-9-yl}-4-hydroxytetrahydrofuran-2-carboxylic acid methylamide]
25 | 180 to 183 | CNC(=O)[C@H]1O[C@@H](n2cnc3c(NCc4cc(Cl)ccc4OCc4ccns4)ncnc32)[C@H](O)[C@@H]1N [Example 30, (2S,3S,4R,5R)3-Amino-5-{6-[5-chloro-2-(isothiazol-5-ylmethoxy)benzylamino]purin-9-yl}-4-hydroxytetrahydrofuran-2-carboxylic acid methylamide]
26 | 92 to 97 | CNC(=O)[C@H]1O[C@@H](n2cnc3c(NCc4cc(Cl)ccc4OCc4cccc(C)c4)ncnc32)[C@H](O)[C@@H]1N [Example 14, (2S,3S,4R,5R)3-Amino-5-{6-[5-chloro-2-(3-methyl-benzyloxy)-benzylamino]-purin-9-yl}-4-hydroxytetrahydrofuran-2-carboxylic acid methylamide]
